Assay results reported in publication PMC3793924, “Targeting Androgen Receptor/Src Complex Impairs the Aggressive Phenotype of Human Fibrosarcoma Cells” (PLoS ONE, 2013).

Experiments:
HT1080 cells [1] = assay: BrdU incorporation (DNA synthesis) in quiescent HT1080 cells; type: cell-based, human; settings: 18 h, R1881 and DHT 10 nM, EGF 100 ng/ml
Method: Human fibrosarcoma HT1080 cells were used. In A, quiescent cells on coverslips were left un-stimulated or stimulated for 18 h with the indicated compounds. […] After in vivo pulse with BrdU (100 μM; Sigma), BrdU incorporation was analyzed by IF and expressed as % of total nuclei. Several independent experiments were performed in duplicate and the results were derived from at least 400 scored cells for each coverslip. Mean and SEM are shown. n represents the number of experiments. […] In B, xenografts were established in nude male mice as described in Methods. On alternate days, animals were intra-peritoneally injected with vehicle alone (vehicle), or the pure androgen antagonist Casodex (Cx: 0.1 μg/mice; 4µg/Kg body weight), or DHT (DHT: 0,1 μg/mice; 3 μg/Kg body weight) alone. Volumes of HT1080 cell xenografts were measured at the indicated times in two dimensions by a caliper and expressed as tumor mass (mm^3). Mean and SEM are shown. n represents the number of experiments.
Quiescent HT1080 cells were used. […] Casodex (at 10 μM) was used for comparison with the S1 peptide. Upper section in A, Western blot of HT1080 cell lysates with anti-EGFR antibody. […] In B, lysates were immune-precipitated with the anti-Src MAb and Src activity in immune complexes was assayed using acidified enolase, as a substrate. In C, cells on coverslips were left untreated or treated for 18 h with the indicated compounds. After in vivo pulse with BrdU (100 μM), BrdU incorporation was analyzed by IF and expressed as % of total nuclei. Several independent experiments were performed in duplicate and the results were obtained from at least 500 scored cells for each coverslip. Mean and SEM are shown. n represents the number of experiments.

NIH3T3 cells = assay: BrdU incorporation in NIH3T3 fibroblasts; type: cell-based, mouse; settings: quiescent NIH3T3 cells, 18 h; EGF 100 ng/ml; R1881 10 nM
Method: NIH3T3 cells were used. In A, cells were transfected with 3416 or 3424 ARE-Luc constructs with or without hAR-expressing plasmid and then made quiescent as reported in Methods. Cells were left unstimulated or stimulated for 18 h with 10 nM R1881. Luciferase activity was assayed, normalized using beta-gal as an internal control, and expressed as fold induction. Three independent experiments were performed in triplicate. Means and SEM are shown; n represents the number of experiments. […] After in vivo labeling with BrdU (100 μM), BrdU incorporation was analyzed by IF and expressed as % of total cells. Several independent experiments were performed in duplicate and data derived from at least 700 scored cells for each coverslip. Mean and SEM are shown. n represents the number of experiments. […] Quiescent NIH3T3 fibroblasts were used. In C, cells on coverslips were left unstimulated or stimulated for 18 h with the indicated compounds. […] After in vivo pulse with BrdU (100 μM), BrdU incorporation was analyzed by IF and expressed as % of total cells. Several independent experiments were performed in duplicate and the results were derived from at least 500 scored cells for each coverslip. Mean and SEM are shown. n represents the number of experiments. […] The Western blot of MCF-7 cell lysate with the anti-tubulin or the anti-EGFR antibody is shown for comparison. In D, cells were left untreated or treated for 6 h with the indicated compounds. […] Cells were allowed to migrate in collagen pre-coated Trans-well filters. Migrated cells were stained and counted as reported in Methods. Results were derived from several independent experiments, each performed in duplicate. Data are expressed as relative increase. Mean and SEM are shown. n represents the number of experiments. […] (PPTX) Click here for additional data file.

HT1080 cells [2] = assay: Trans-well migration/invasiveness of HT1080 cells; type: cell-based, human; settings: HT1080 cells, 10 nM R1881, 6 h, collagen pre-coated Trans-well filters
HT1080 cell xenografts = HT1080 cell xenografts in nude male mice, tumor mass; type: in vivo; settings: i.p. on alternate days for 4 weeks, Casodex 0.1 μg/mice (4 µg/Kg), DHT 0,1 μg/mice (3 μg/Kg), six animals per group
Method: Figure 1 Casodex inhibits the EGF-triggered DNA synthesis in human fibrosarcoma HT1080 cells and reduces the growth of HT1080 xenografts. Human fibrosarcoma HT1080 cells were used. In A, quiescent cells on coverslips were left un-stimulated or stimulated for 18 h with the indicated compounds. […] After in vivo pulse with BrdU (100 μM; Sigma), BrdU incorporation was analyzed by IF and expressed as % of total nuclei. Several independent experiments were performed in duplicate and the results were derived from at least 400 scored cells for each coverslip. Mean and SEM are shown. n represents the number of experiments. (**) p value< 0,001. […] In B, xenografts were established in nude male mice as described in Methods. […] Volumes of HT1080 cell xenografts were measured at the indicated times in two dimensions by a caliper and expressed as tumor mass (mm^3). […]
HT1080 cells in 50% (v/v) Matrigel solution in phosphate-buffered saline (PBS; pH 7.4) were subcutaneously injected in the dorsal posterior region at 2.5 x 10^6 cells/male athymic mice (CD mice, Charles-River Italia) without hormone priming. […] The tumor volumes of HT1080 cell xenografts were measured at indicated intervals in two dimensions by a caliper and expressed as tumor mass (mm^3). This is calculated according to the formula: a^2 × b × 0.5, where a is the width and b is the length of the tumor. […]

| Compound | BrdU incorporation (DNA synthesis) upon stimulation with the compound alone (HT1080 cells [1]) | BrdU incorporation (DNA synthesis) upon stimulation with the compound alone (NIH3T3 cells) | Cell motility upon androgen challenge (Trans-well) (HT1080 cells [2]) | Growth of HT1080 xenografts (tumor mass) (HT1080 cell xenografts) |
| --- | --- | --- | --- | --- |
| C[C@]1(O)CC[C@H]2[C@@H]3CCC4=CC(=O)CCC4=C3C=C[C@@]21C [R1881] | unable to mediate DNA synthesis | does not induce DNA synthesis | robustly increases cell motility |  |
| C[C@]12CCC(=O)C[C@@H]1CC[C@@H]1[C@@H]2CC[C@]2(C)[C@@H](O)CC[C@@H]12 [DHT] | unable to mediate DNA synthesis |  |  | slightly affected this increase |
